In PMC9500072, “Topical application of an irreversible small molecule inhibitor of lysyl oxidases ameliorates skin scarring and fibrosis” (Nature Communications, 2022):
Values joined by “and” are separate entries in the source; they are usually repeats but may differ in a detail not shown here. Identical values can stand only once.

Key:
[1] = tested on: bleomycin-induced skin fibrosis; assay: Bleomycin-induced skin fibrosis in mice; assay type: in vivo, C57BL/6 mice; design: Skin LOX activity: scale not given here
Procedure: With a pharmacokinetic and pharmacodynamic profile supportive of the potential as a potent topical anti-fibrotic treatment, we next moved to evaluate the in vivo efficacy of PXS-6302. Intradermal injections of bleomycin on alternate days for three weeks induces fibrosis[21],[22]. […] In this model, starting from Day 3 and continuing until Day 20, bleomycin-dosed mice (0.1U, alternate days), were treated once daily topically with 0% (vehicle) or 1.5% PXS-6302 oil in water cream (2 ×100 μL applications at a 10-min interval). […] As bleomycin also stimulates the expression of degrading enzymes such as matrix metalloproteases, the significant drop in hydroxyproline and immature crosslinks could be related to both the reduced production as well as the accelerated degradation of these matrix proteins.
Cell pellets or isolated tissue samples were completely hydrolyzed in 1.5 mL 6 M hydrochloric acid for 24 h at 105 °C. After complete hydrolysis, samples were dried using a vacuum dryer and reconstituted using 200 µL MilliQ water. The sample clean-up was performed using solid-phase extraction method which uses C18 and SCX solid-phase extraction cartridges for sample purification. The samples were run on UPLC-MS-MS (Mass Spectrometer: Thermo Scientific TSQ Endura Triple quadrupole, UPLC: Thermo Scientific Dionex UltiMate 3000) using Agilent RRHD SB-C18,2.1x50mm,1.8um analytical column and solvent A: 10 mM ammonium formate, 0.1% formic acid, 0.1% HFBA in H2O and solvent B: 10 mM ammonium formate, 0.1% formic acid, 0.1% HFBA in MeOH and analyzed as previously described. Limits of detection are listed in Supplementary Table S4.
8–10-week old C57BL/6 mice (n = 10 each group) were used to induce skin fibrosis. Bleomycin (Bleomycin sulfate from Streptomyces verticillicus, Euroasia) dry powder 1.5 IU/mg was reconstituted in saline at 2 IU/ml concentration. Starting on day 0 and continuing on alternate days thereafter, animals received subcutaneous injection of Bleomycin (0.1 IU in 50 µL volume) and/or saline on the right flank. For each animal, each dose was injected at a single site. The injections were continued for 20 days throughout the study. Starting from day three, vehicle cream or vehicle plus drug cream were applied topically once a daily treatment to a 2 cm × 2 cm area on the right dorsal flank of the animal for 20 days. On Day 21, all animals were euthanized and the skin tissue was collected for further histopathological analysis. The skin tissue was fixed in 4% PFA and sectioned skin was stained with Masson’s Trichrome, Collagen I and LOX and used to assess dermal fibrosis. Masson’s Trichrome was used to assess fibrotic index. Collagen Stain was subjectively scored for intensity as compared to control tissue. LOX Stain was subjectively scored as stain accumulation compared to control tissue. All images were assessed by assessors blinded to the treatment group. Composite skin/immunohistochemistry scoring tables used are in the Supplementary Information (Supplementary Tables S5, S6).

[2] = tested on: full-thickness excision injury scar; assay: Porcine excision injury model; assay type: in vivo, pigs
[3] = Systemic exposure in rat at 1000 mg/kg/day; assay type: in vivo; conditions: daily for 1 week
[4] = target: Adenosine A2A (Homo sapiens, UniProt P29274); assay: Eurofins panel 200610; assay type: binding
[5] = target: Adrenergic α1A (Rattus norvegicus, UniProt P43140); assay: Eurofins panel 203100; assay type: binding
[6] = target: Adrenergic α2A (Homo sapiens, UniProt P08913); assay: Eurofins panel 203630; assay type: binding
[7] = target: Adrenergic β1 (Homo sapiens, UniProt P08588); assay: Eurofins panel 204010; assay type: binding
[8] = target: Adrenergic β2 (Homo sapiens, UniProt P07550); assay: Eurofins panel 204110; assay type: binding
[9] = tested on: Androgen (Testosterone); assay: Eurofins panel 206000; assay type: binding, human
[10] = target: Cannabinoid CB1 (Homo sapiens, UniProt P21554); assay: Eurofins panel 217030; assay type: binding
[11] = target: Dopamine D2S (Homo sapiens, UniProt P14416); assay: Eurofins panel 219700; assay type: binding
[12] = target: Endothelin ETA (Homo sapiens, UniProt P25101); assay: Eurofins panel 224010; assay type: binding
[13] = tested on: GABAA, Flunitrazepam, Central; assay: Eurofins panel 226600; assay type: binding, rat
[14] = target: Glucocorticoid (Homo sapiens, UniProt P04150); assay: Eurofins panel 232030; assay type: binding
[15] = tested on: Glutamate, NMDA, Agonism; assay: Eurofins panel 232810; assay type: binding, rat
[16] = target: Muscarinic M1 (Homo sapiens, UniProt P11229); assay: Eurofins panel 252610; assay type: binding
[17] = target: Muscarinic M2 (Homo sapiens, UniProt P08172); assay: Eurofins panel 252710; assay type: binding
[18] = target: Muscarinic M3 (Homo sapiens, UniProt P20309); assay: Eurofins panel 252810; assay type: binding
[19] = target: Opiate δ1 (OP1, DOP) (Homo sapiens, UniProt P41143); assay: Eurofins panel 260130; assay type: binding
[20] = target: Opiate κ(OP2, KOP) (Homo sapiens, UniProt P41145); assay: Eurofins panel 260210; assay type: binding
[21] = target: Serotonin (5-Hydroxytryptamine) 5-HT2B (Homo sapiens, UniProt P41595); assay: Eurofins panel 271700; assay type: binding
[22] = target: Serotonin (5-Hydroxytryptamine) 5-HT3 (Homo sapiens, UniProt P46098); assay: Eurofins panel 271910; assay type: binding
[23] = target: Transporter, Dopamine (DAT) (Homo sapiens, UniProt Q01959); assay: Eurofins panel 220320; assay type: binding
[24] = target: Cholecystokinin CCK1 (CCKA) (Homo sapiens, UniProt P32238); assay: Eurofins panel 218030; assay type: binding
[25] = […] cream topically once daily, Day 3 to Day 20

Adenosine A2A, sequence (P29274 whole entry): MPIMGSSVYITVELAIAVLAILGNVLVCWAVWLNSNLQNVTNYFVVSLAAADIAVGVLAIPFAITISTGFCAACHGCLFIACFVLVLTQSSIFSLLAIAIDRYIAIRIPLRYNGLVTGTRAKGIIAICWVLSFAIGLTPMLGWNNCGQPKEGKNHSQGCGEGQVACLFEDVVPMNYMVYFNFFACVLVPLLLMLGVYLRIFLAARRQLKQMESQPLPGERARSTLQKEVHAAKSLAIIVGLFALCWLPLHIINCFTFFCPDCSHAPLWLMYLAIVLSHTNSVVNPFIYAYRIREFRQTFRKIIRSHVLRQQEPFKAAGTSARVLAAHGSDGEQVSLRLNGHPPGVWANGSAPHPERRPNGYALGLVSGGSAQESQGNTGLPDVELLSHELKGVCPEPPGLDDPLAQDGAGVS
Endothelin ETA, sequence (P25101 21-427): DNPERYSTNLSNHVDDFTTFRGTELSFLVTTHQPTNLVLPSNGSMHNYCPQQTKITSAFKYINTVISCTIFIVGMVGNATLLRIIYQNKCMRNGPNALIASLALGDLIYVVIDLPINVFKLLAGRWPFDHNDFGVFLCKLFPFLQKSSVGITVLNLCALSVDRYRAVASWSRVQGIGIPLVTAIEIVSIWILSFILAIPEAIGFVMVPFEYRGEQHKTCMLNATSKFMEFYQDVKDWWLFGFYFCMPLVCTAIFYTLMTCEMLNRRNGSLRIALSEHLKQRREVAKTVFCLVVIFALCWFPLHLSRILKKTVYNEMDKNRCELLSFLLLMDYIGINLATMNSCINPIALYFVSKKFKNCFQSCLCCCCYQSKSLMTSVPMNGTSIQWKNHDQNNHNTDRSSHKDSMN
Adrenergic β2, sequence (P07550 whole entry): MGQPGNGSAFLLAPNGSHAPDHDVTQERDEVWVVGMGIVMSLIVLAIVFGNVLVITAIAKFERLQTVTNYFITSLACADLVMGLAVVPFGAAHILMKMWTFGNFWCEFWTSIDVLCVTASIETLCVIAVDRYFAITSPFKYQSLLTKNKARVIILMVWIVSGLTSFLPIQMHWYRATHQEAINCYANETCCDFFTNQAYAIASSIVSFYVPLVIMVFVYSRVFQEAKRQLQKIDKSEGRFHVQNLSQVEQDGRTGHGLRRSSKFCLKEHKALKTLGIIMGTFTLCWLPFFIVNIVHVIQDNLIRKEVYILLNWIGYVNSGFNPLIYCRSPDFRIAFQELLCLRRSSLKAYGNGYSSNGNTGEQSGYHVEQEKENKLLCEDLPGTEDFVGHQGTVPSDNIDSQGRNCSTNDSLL
Glucocorticoid, sequence (P04150 whole entry): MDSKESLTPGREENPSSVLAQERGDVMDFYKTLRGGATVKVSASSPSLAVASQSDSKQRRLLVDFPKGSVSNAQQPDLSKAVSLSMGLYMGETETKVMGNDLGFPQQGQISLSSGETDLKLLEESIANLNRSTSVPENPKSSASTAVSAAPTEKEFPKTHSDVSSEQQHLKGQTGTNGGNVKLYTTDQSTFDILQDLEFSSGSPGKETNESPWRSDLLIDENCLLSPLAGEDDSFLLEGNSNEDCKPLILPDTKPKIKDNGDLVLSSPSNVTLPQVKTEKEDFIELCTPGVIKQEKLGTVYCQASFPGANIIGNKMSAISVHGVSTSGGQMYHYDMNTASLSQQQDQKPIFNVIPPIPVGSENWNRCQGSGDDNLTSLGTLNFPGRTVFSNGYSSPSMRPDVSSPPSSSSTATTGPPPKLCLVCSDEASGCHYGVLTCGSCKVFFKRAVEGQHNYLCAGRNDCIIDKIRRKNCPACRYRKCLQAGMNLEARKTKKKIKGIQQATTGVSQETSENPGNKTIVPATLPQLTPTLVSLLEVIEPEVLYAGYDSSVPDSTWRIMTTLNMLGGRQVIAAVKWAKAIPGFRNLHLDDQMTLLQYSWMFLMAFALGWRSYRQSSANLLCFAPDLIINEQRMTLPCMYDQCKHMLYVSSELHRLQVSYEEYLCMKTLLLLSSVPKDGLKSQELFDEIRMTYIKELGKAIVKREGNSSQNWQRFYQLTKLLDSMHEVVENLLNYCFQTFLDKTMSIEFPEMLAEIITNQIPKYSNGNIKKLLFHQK
Adrenergic α2A, sequence (P08913 whole entry): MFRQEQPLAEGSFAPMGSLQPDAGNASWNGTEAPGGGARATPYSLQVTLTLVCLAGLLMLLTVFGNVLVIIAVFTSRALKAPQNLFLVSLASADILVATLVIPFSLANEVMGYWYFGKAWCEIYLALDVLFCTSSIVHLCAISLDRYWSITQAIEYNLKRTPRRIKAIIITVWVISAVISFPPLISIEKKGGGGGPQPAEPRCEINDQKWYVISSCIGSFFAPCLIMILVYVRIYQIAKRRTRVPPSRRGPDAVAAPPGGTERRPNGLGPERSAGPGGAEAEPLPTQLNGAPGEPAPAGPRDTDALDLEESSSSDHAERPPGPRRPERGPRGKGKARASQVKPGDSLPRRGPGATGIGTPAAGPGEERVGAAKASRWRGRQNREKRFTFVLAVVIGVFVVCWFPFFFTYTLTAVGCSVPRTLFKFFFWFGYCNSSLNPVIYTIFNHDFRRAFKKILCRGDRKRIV
Cannabinoid CB1, sequence (P21554 whole entry): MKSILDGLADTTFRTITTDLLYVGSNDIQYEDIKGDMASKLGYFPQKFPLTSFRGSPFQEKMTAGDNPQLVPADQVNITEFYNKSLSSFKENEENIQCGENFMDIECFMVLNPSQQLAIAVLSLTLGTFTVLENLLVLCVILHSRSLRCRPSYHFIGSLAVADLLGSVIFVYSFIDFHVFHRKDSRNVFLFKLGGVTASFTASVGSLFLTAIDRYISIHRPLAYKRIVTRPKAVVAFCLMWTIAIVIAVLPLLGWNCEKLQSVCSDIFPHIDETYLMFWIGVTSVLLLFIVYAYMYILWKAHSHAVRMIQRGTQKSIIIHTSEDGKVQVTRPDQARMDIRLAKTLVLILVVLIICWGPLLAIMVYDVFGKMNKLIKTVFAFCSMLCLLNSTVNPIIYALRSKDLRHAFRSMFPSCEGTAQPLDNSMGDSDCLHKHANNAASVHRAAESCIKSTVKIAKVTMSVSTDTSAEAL
Transporter, Dopamine (DAT), sequence (Q01959 whole entry): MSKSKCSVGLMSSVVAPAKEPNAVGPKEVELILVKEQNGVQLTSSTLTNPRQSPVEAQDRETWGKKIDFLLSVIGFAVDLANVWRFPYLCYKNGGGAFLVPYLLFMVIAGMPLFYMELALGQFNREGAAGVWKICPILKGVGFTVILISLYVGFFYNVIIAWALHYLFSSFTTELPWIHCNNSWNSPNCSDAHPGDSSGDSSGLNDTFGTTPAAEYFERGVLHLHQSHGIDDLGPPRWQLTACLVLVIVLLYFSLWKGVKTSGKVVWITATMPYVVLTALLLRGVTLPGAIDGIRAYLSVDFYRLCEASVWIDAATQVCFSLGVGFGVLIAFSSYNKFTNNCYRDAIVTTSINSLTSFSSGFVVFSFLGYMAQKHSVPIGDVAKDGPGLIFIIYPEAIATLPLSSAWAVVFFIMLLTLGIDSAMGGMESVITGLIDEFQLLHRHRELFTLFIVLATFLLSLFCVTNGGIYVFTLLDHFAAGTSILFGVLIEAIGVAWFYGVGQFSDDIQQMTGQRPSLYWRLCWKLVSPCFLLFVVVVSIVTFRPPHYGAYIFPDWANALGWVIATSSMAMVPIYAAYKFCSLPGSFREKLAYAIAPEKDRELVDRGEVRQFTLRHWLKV
Adrenergic β1, sequence (P08588 whole entry): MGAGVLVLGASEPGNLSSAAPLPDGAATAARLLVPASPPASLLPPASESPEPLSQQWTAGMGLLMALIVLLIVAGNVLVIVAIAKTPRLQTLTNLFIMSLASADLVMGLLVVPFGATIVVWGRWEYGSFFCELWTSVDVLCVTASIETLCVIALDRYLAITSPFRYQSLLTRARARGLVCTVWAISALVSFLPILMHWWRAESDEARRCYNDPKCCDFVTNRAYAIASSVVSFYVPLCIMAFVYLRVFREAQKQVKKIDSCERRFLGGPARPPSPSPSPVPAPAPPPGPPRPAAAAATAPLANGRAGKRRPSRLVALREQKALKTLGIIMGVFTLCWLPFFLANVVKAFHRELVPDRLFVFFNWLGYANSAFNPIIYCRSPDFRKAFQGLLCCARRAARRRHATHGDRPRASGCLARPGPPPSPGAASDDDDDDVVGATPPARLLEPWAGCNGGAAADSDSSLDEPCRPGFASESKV
Serotonin (5-Hydroxytryptamine) 5-HT3, sequence (P46098 24-478): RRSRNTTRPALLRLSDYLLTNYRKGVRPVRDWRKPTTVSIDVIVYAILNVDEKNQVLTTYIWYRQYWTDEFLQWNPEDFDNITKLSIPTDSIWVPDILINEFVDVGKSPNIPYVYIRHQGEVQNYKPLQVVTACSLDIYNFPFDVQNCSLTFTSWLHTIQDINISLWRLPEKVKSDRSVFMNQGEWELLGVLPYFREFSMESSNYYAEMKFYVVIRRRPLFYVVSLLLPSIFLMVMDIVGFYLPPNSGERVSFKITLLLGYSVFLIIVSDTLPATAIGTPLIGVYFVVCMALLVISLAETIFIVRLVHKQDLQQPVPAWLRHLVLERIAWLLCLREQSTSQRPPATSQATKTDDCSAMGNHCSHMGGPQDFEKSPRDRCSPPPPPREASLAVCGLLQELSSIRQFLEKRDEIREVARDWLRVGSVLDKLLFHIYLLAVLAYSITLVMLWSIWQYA
Opiate κ(OP2, KOP), sequence (P41145 whole entry): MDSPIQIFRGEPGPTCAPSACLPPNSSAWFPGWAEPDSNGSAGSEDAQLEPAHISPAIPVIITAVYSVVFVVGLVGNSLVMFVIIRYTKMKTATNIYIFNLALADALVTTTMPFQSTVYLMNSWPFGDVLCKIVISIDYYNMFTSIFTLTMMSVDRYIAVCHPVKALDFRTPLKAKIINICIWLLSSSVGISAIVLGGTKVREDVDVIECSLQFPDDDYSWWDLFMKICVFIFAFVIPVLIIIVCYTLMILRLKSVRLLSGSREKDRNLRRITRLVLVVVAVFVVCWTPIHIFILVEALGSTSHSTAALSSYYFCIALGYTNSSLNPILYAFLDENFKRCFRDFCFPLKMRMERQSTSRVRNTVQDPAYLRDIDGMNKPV

SMILES: NC/C=C(\F)CS(=O)(=O)c1ccccc1 [PXS-4787]
- composite skin score ([1]; […] cream topically once daily): Reduced
- immunohistochemistry COL1 score ([1]; […] cream topically once daily): decreas ed
- immunohistochemistry LOX score ([1]; […] cream topically once daily): Decreased
- Surgeon score dose response ([2]; 0.5 %): 16 and 20 and 14
- Surgeon score dose response ([2]; 3%): 11 and 10 and 12 and 9
- Lox enzyme activity in scars ([2]; 3% cream, 24 hours after final application): significantly inhibited
- scar appearance rank (0 best to 3 worst) by blinded plastic surgeons ([2]; 3% cream, treatment commenced at 3 weeks post-injury, analysed at 12 weeks): significant improvements in scar appearance
- LOX activity S/N ([2]; PXS-4787, individual samples): 2.7 and 1.5 and 1.8 and 1.4 and 1.3
- systemic levels [3]: negligible
- inhibition at 10 µM ([4]; 10 µM): 15%
- inhibition at 10 µM ([5]; 10 µM): 1%
- inhibition at 10 µM ([6]; 10 µM): 1%
- inhibition at 10 µM ([7]; 10 µM): -3%
- inhibition at 10 µM ([8]; 10 µM): 10%
- % Inh. ([9]; 10 µM): 2%
- inhibition at 10 µM ([10]; 10 µM): 8%
- inhibition at 10 µM ([11]; 10 µM): 13%
- inhibition at 10 µM ([12]; 10 µM): 4%
- % Inh. ([13]; 10 µM): -1%
- inhibition at 10 µM ([14]; 10 µM): 3%
- % Inh. ([15]; 10 µM): 2%
- inhibition at 10 µM ([16]; 10 µM): 56%
- inhibition at 10 µM ([17]; 10 µM): 7%
- inhibition at 10 µM ([18]; 10 µM): 27%
- inhibition at 10 µM ([19]; 10 µM): 5%
- inhibition at 10 µM ([20]; 10 µM): 3%
- inhibition at 10 µM ([21]; 10 µM): 21%
- inhibition at 10 µM ([22]; 10 µM): 6%
- inhibition at 10 µM ([23]; 10 µM): 6%

SMILES: NC/C=C(\F)C(F)(F)S(=O)(=O)c1ccccc1 [PXS-6302]
- Skin LOX activity ([1]; Bleo + PXS-6302, individual animals): 0.8656 and 1.07 and 1.02 and 1.046 and 0.9944 and 1.027 and 1.022 and 1.017 and 1.088
- Skin thickness ([1]; PXS-6302, individual animals): 0.34 mm and 0.36 mm and 0.41 mm and 0.33 mm and 0.39 mm and 0.38 mm and 0.4 mm
- composite skin score ([1]; […] cream topically once daily): significantly reduced
- immunohistochemistry COL1 score ([1]; […] cream topically once daily): significantly reduced
- immunohistochemistry LOX score ([1]; […] cream topically once daily): significantly reduced
- LOX activity in skin [1, 25]: significant reduction
- fibrosis as assessed by skin thickness [1, 25]: significantly reduced
- hydroxyproline content [1, 25]: reduced
- immature crosslinking (DHLNL and HLNL) [1, 25]: reduced
- Excision injury scar scores (average score of all surgeons for each wound/tx group) ([2]; 3%): 9 and 6.667 and 6 and 5.667 and 5 and 6.333 and 9.667 and 9.333
- scar score 1–10 by blinded plastic surgeons ([2]; 3% cream once daily, 12 weeks): significantly higher scores
- LOX activity in scar tissue ([2]; 24 h after the final dose, once daily cream): significantly reduced
- S/N ration LOX activity (Fig. 8A) ([2]; porcine scar 24 h after final daily application, individual samples): 1.073 and 0.9572 and 1.114 and 1.845 and 1.506
- systemic levels [3]: negligible
- inhibition at 30 µM ([4]; read-out: % Inh.): -6%
- inhibition at 30 µM ([5]; read-out: % Inh.): 3%
- inhibition at 30 µM ([6]; read-out: % Inh.): 17%
- inhibition at 30 µM ([7]; read-out: % Inh.): 4%
- inhibition at 30 µM ([8]; read-out: % Inh.): 17%
- % Inh. ([9]; 30 µM): -14%
- inhibition at 30 µM ([10]; read-out: % Inh.): 4%
- inhibition at 30 µM ([11]; read-out: % Inh.): 13%
- inhibition at 30 µM ([12]; read-out: % Inh.): 7%
- % Inh. ([13]; 30 µM): 4%
- inhibition at 30 µM ([14]; read-out: % Inh.): 13%
- % Inh. ([15]; 30 µM): -16%
- inhibition at 30 µM ([16]; read-out: % Inh.): 13%
- inhibition at 30 µM ([17]; read-out: % Inh.): 16%
- inhibition at 30 µM ([18]; read-out: % Inh.): 15%
- inhibition at 30 µM ([19]; read-out: % Inh.): 26%
- inhibition at 30 µM ([20]; read-out: % Inh.): 10%
- inhibition at 30 µM ([21]; read-out: % Inh.): 63%
- inhibition at 30 µM ([22]; read-out: % Inh.): 6%
- inhibition at 30 µM ([23]; read-out: % Inh.): 50%
- inhibition at 30 µM [24]: 1%
